≈ marks a conversion by molar mass, not a printed value.
Columns and labels:
plasma corticosterone = assay: Plasma corticosterone in rats after oral dosing (ELISA); assay type: in vivo, Sprague Dawley rats; conditions: for Corticosteroid Levels (mean ± SEM): 4 h after gavage
Protocol: To generate the results shown in FIG. 1, five groups (eight per group) of rats were used. The rats were maintained on a 14/10 hour light/dark cycle and allowed free access to food and water. Each rat was dosed (200 mg drug/kg body weight) via a gastric tube. […] All of the rats were dosed between 2.00 and 3.00 pm and were sacrificed four hours later (between 6.00 and 7.00 pm). Plasma was prepared and the concentration of corticosterone determined by an enzyme linked immuno assay (ELISA). In rats, the predominant active glucocorticoid is corticosterone; in humans, the predominant active glucucorticoid is the closely related molecule cortisol.
The rats were maintained and dosed as described above. Plasma was prepared and the concentration of corticosterone in the plasma determined by ELISA.
The rats were maintained as described above; the drugs were suspended in olive oil, and each rat was dosed once via gastric tube to achieve a dose of 200 mg/kg. All of the rats were dosed at a specific time so that all terminations occurred between 6 and 7 pm. […] Following sacrifice, plasma was prepared, and the concentration of corticosterone in the plasma was determined by ELISA. In the same plasma samples, total cholesterol levels were also determined.
In the Table, corticosterone levels (mean±SEM; ng/mL) were determined four hours after oral gavage of the indicated drug (N=10/group). There was a single control group (dosed with vehicle).
Corticosterone levels (mean±SEM; ng/mL) were determined at the indicated times after oral gavage of the indicated drug at 200 mg/kg. […] The means of the vehicle treated groups are used as the time zero control point.

testosterone levels = assay: Testosterone levels in rats after oral dosing; assay type: in vivo, Sprague Dawley rats; conditions: for Testosterone levels (mean ± SEM): 4 h after gavage
Description: There was a single control group (dosed with vehicle).
The means of the vehicle treated groups are used as the time zero control point.

Candida albicans = assay: Antifungal MIC; assay type: cell-based
Candida glabrata = assay: Antifungal MIC; assay type: cell-based; conditions: Nakaseomyces glabratus
Candida guilliermondii = assay: Antifungal MIC; assay type: cell-based; conditions: Meyerozyma guilliermondii, DSM11947; DSM strain 11947, 48 h
Candida tropicalis = assay: Antifungal MIC; assay type: cell-based
Cryptococcus neoformans = assay: Antifungal MIC; assay type: cell-based
Issatchenkia orientalis = assay: Antifungal MIC; assay type: cell-based; conditions: Pichia kudriavzevii
[1] = Toxicokinetics in the 28 day dog study of DIO-902 (with racemic ketoconazole group a); conditions: beagle, plasma, dogs; for concentration at 0 h / concentration at 1 h / concentration at 2 h / concentration at 4 h / concentration at 8 h / concentration at 12 h: Drug concentration in plasma; for AUC(0-t): AUC(0-12); for Tmax: Tmax Range;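 on all read-outs here: beagle dogs dosed orally once daily within a 28-day GLP study, 3 animals per sex per group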
[2] = female, oral, 20 mg/kg, group a: 20 mg/kg oral (after 40 mg/kg days 1-9, pause), day 28, F
[3] = female, po, 20 mg/kg, group a: 20 mg/kg oral (after 40 mg/kg days 1-9, pause), day 28, F
[4] = female, po, 40 mg/kg, group a: 40 mg/kg oral, day 1, F
[5] = male, oral, 20 mg/kg, group a: 20 mg/kg oral (after 40 mg/kg days 1-9, pause), day 28, M
[6] = male, po, 20 mg/kg, group a: 20 mg/kg oral (after 40 mg/kg days 1-9, pause), day 28, M
[7] = male, po, 40 mg/kg, group a: 40 mg/kg oral, day 1, M

CC(=O)N1CCN(c2ccc(OCC3COC(Cn4ccnc4)(c4ccc(Cl)cc4Cl)O3)cc2)CC1 (racemic) [Racemic ketoconazole, 1-acetyl-4-[4-[[2-(2,4-dichlorophenyl)-2-[(1H-imidazol-1-yl)-methyl]-1,3-dioxolan-4-yl]methoxy]phenyl]piperazine]
efficacy at lowering corticosterone, time course (FIG. 3) (plasma corticosterone; 200 mg/kg oral, up to 24 hours): intermediate between the two enantiomers | Corticosteroid Levels (mean ± SEM) (plasma corticosterone; single oral 50 mg/kg): 215 ± 20.7 ng/mL | Corticosteroid Levels (mean ± SEM) (plasma corticosterone; single oral 100 mg/kg): 210 ± 15.5 ng/mL | Corticosteroid Levels (mean ± SEM), time course (plasma corticosterone; single oral 200 mg/kg, 4 h): 134 ± 10 ng/mL | Corticosteroid Levels (mean ± SEM) (plasma corticosterone; single oral 200 mg/kg): 135 ± 13.7 ng/mL | Corticosteroid Levels (mean ± SEM), time course (plasma corticosterone; single oral 200 mg/kg, 8 h): 163 ± 11 ng/mL | Corticosteroid Levels (mean ± SEM), time course (plasma corticosterone; single oral 200 mg/kg, 12 h): 153 ± 14 ng/mL | Corticosteroid Levels (mean ± SEM), time course (plasma corticosterone; single oral 200 mg/kg, 16 h): 132 ± 6 ng/mL | Corticosteroid Levels (mean ± SEM), time course (plasma corticosterone; single oral 200 mg/kg, 20 h): 147 ± 17 ng/mL | Corticosteroid Levels (mean ± SEM), time course (plasma corticosterone; single oral 200 mg/kg, 24 h): 151 ± 14 ng/mL | Corticosteroid Levels (mean ± SEM) (plasma corticosterone; single oral 400 mg/kg): 113 ± 6.6 ng/mL | Corticosteroid Levels (mean ± SEM) (plasma corticosterone; single oral 600 mg/kg): 115 ± 14.3 ng/mL | Testosterone levels (mean ± SEM) (testosterone levels; single oral 50 mg/kg): 2.7 ± 0.6 nmol/L | Testosterone levels (mean ± SEM) (testosterone levels; single oral 100 mg/kg): 1.7 ± 0.5 nmol/L | Testosterone levels (mean ± SEM), time course (testosterone levels; single oral 200 mg/kg, 4 h): 1.6 ± 0.6 nmol/L | Testosterone levels (mean ± SEM) (testosterone levels; single oral 200 mg/kg): 0.4 ± 0.2 nmol/L | Testosterone levels (mean ± SEM), time course (testosterone levels; single oral 200 mg/kg, 8 h): 8.0 ± 1.0 nmol/L | Testosterone levels (mean ± SEM), time course (testosterone levels; single oral 200 mg/kg, 12 h): 4.6 ± 0.6 nmol/L | Testosterone levels (mean ± SEM), time course (testosterone levels; single oral 200 mg/kg, 16 h): 3.8 ± 0.5 nmol/L | Testosterone levels (mean ± SEM), time course (testosterone levels; single oral 200 mg/kg, 20 h): 5.6 ± 0.8 nmol/L | Testosterone levels (mean ± SEM), time course (testosterone levels; single oral 200 mg/kg, 24 h): 5.9 ± 0.5 nmol/L | Testosterone levels (mean ± SEM) (testosterone levels; single oral 400 mg/kg): 0.4 ± 0.2 nmol/L | Testosterone levels (mean ± SEM) (testosterone levels; single oral 600 mg/kg): 0.8 ± 0.1 nmol/L | MIC (Candida albicans; 48 h): < 0.015 µg/mL | MIC (Candida albicans; DSM11225, 48 h): < 0.015 µg/mL | MIC (Candida albicans; DSM11943, 48 h): < 0.015 µg/mL | MIC (Candida albicans; DSM11944, 48 h): < 0.015 µg/mL | MIC (Candida albicans; DSM11945, 48 h): 0.03 µg/mL (≈ 0.0565 µM) | MIC (Candida albicans; DSM11948, 48 h): < 0.015 µg/mL | MIC (Candida albicans; DSM11949, 48 h): 0.125 µg/mL (≈ 0.235 µM) | MIC (Candida glabrata; DSM11226, 48 h): 0.5 µg/mL (≈ 0.941 µM) | MIC (Candida glabrata; DSM11950, 48 h): 0.25 µg/mL (≈ 0.47 µM) | MIC (Candida guilliermondii): 0.125 µg/mL (≈ 0.235 µM) | MIC (Candida tropicalis; DSM11951, 48 h): 0.125 µg/mL (≈ 0.235 µM) | MIC (Candida tropicalis; DSM11952, 48 h): 4 µg/mL (≈ 7.53 µM) | MIC (Candida tropicalis; DSM11953, 48 h): 0.06 µg/mL (≈ 0.113 µM) | MIC (Cryptococcus neoformans; DSM11959, DSM strain 11959, 48 h): 0.06 µg/mL (≈ 0.113 µM) | MIC (Cryptococcus neoformans; DSM11960, DSM strain 11960, 48 h): 0.125 µg/mL (≈ 0.235 µM) | MIC (Issatchenkia orientalis; DSM11956, 48 h): 0.25 µg/mL (≈ 0.47 µM) | MIC (Issatchenkia orientalis; DSM11958, 48 h): 1 µg/mL (≈ 1.88 µM) | concentration at 0 h [1, 2]: < 250 ng/mL | concentration at 1 h [1, 2]: < 250 ng/mL | concentration at 2 h [1, 2]: 270 ng/mL | concentration at 4 h [1, 2]: 350 ng/mL | concentration at 8 h [1, 2]: 310 ng/mL | concentration at 12 h [1, 2]: < 250 ng/mL | AUC(0-t) ([1]; female, po, 20 mg/kg, group a: 20 mg/kg oral (after 40 mg/kg days 1-9, pause), day 28, F, n = 1): 4700 ng·h/mL | Cmax [1, 3]: 550 ng/mL | Tmax [1, 3]: 2 to 8 h | AUC(0-t) [1, 4]: 185000 ng·h/mL | Cmax [1, 4]: 21300 ng/mL | concentration at 0 h [1, 4]: < 250 ng/mL | concentration at 1 h [1, 4]: 4290 ng/mL | concentration at 2 h [1, 4]: 12300 ng/mL | concentration at 4 h [1, 4]: 20100 ng/mL | concentration at 8 h [1, 4]: 18300 ng/mL | concentration at 12 h [1, 4]: 14800 ng/mL | Tmax [1, 4]: 4 to 8 h | concentration at 0 h [1, 5]: < 250 ng/mL | concentration at 1 h [1, 5]: < 250 ng/mL | concentration at 2 h [1, 5]: 280 ng/mL | concentration at 4 h [1, 5]: < 250 ng/mL | concentration at 8 h [1, 5]: < 250 ng/mL | concentration at 12 h [1, 5]: < 250 ng/mL | AUC(0-t) ([1]; male, po, 20 mg/kg, group a: 20 mg/kg oral (after 40 mg/kg days 1-9, pause), day 28, M, n = 1): 3420 ng·h/mL | Cmax [1, 6]: 510 ng/mL | Tmax [1, 6]: 1 to 8 h | AUC(0-t) [1, 7]: 143000 ng·h/mL | Cmax [1, 7]: 16600 ng/mL | concentration at 0 h [1, 7]: < 250 ng/mL | concentration at 1 h [1, 7]: 5600 ng/mL | concentration at 2 h [1, 7]: 8870 ng/mL | concentration at 4 h [1, 7]: 10800 ng/mL | concentration at 8 h [1, 7]: 16600 ng/mL | concentration at 12 h [1, 7]: 12800 ng/mL | Tmax [1, 7]: 8 h

— patent publication US11478471B2, “Methods and compositions for treating diabetes, metabolic syndrome and other conditions” (priority 2005, dated 2022)
